One series has as its system LNCaP. Put plainly: Growth inhibition by MTT, LNCaP prostate cancer cells. It counts as cell-based, Human. The following applies: MTT, 72 h exposure (Table 3), read-out: IC50 LNCaP. On the procedure:
Growth inhibitory effects of NATURA and other agents on human cancer cells were determined by standard MTT (3-(4,5-dimethylthiazol-2-yl)-2,5-diphenyltetrazolium bromide Test) as described previously. […] The cells in the plates were then exposed to series of dilution of indicated agent. After 72 h of incubation, 100 μl of the medium was removed from each of the wells and 50 μl of a 1 mg/ml solution of 3-(4,5-dimethylthiazol-2-yl)-2,5-diphenyltetrazolium bromide (MTT) was added to each well and the cells were incubated for additional 4 h. 200 μl of solution of 0.04 N HCl-isopropanol was added to each well to dissolve the black fromazan participates, and absorbance at 540 nm was measured on a 96-Well.
(§1) The cells in the plates were then exposed to series of dilution of indicated agent. After 72 h of incubation, 100 μl of the medium was removed from each of the wells and 50 μl of a 1 mg/ml solution of 3-(4,5-dimethylthiazol-2-yl)-2,5-diphenyltetrazolium bromide (MTT) was added to each well and the cells were incubated for additional 4 h. 200 μl of solution of 0.04 N HCl-isopropanol was added to each well to dissolve the black fromazan participates, and absorbance at 540 nm was measured on a 96-Well Microplate Reader. Each experiment was repeated at least three times.

The subject of the next series is PC-3. Kind of series: Growth inhibition by MTT, PC-3 prostate cancer cells. The format is cell-based, Human. Particulars: read-out: IC50 PC-3. On the procedure:
(§2) Growth inhibitory effects of NATURA and other agents on human cancer cells were determined by standard MTT (3-(4,5-dimethylthiazol-2-yl)-2,5-diphenyltetrazolium bromide Test) as described previously. Briefly, cancer cells grown exponentially were aliquoted into 96-well plates at a density of 5000 cells/200 μl per well in RPMI 1640 medium containing 10% FBS overnight. The cells in the plates were then exposed to series of dilution of indicated agent. After 72 h of incubation, 100 μl of the medium was removed from each of the wells and 50 μl of a 1 mg/ml solution of 3-(4,5-dimethylthiazol-2-yl)-2,5-diphenyltetrazolium bromide (MTT) was added to each well and the cells were incubated for additional 4 h. 200 μl of solution of 0.04 N HCl-isopropanol was added to each well to dissolve the black fromazan participates, and absorbance at 540 nm was measured on a 96-Well.

In series [1] the test system is polychromatic erythrocytes from bone marrow. Kind of series: Induction of micronuclei in rodent animals. It counts as in vivo. The following applies: mice, 48 mg/kg intraperitoneally daily for 2 days, positive control. The protocol:
Cyclophosphamine at dosage of 48 mg/kg was given intraperitoneally daily for 2 days as positive control. Six hrs after the latest administration, the animals were sacrificed, and polychromatic erythrocytes from bone marrow were stained with Giemsa to count micronuclei.

A further series relates to MCF-7. Kind of series: Growth inhibition by MTT, MCF-7 breast cancer cells. The format is cell-based, Human. On the procedure: as §2
as §1, with “FIGS. 3-5 show the anticancer affects of NATURA in MCF-7 breast cancer cells, DLD-1 colon cancer cells, and LNCaP hormone-dependent prostate cancer cells. The cancer cells grown exponentially were aliquoted into 96-well plates at a density of 5000 cells/200 μl per well in RPMI 1640 medium containing 10% fetal bovine serum (FBS) overnight. The” for “The”

The test system of another series is SKBR-3. Put plainly: Growth inhibition by MTT, SKBR-3 breast cancer cells. It counts as cell-based, Human. Particulars: read-out: IC50 SKBR-3. On the procedure: as §2
Another series relates to LOVO. Put plainly: Growth inhibition by MTT, LOVO colon cancer cells. The following applies: read-out: IC50 LOVO. It counts as cell-based, Human. The protocol: as §2
In the next series the test system is DLD-1. Put plainly: Growth inhibition by MTT, DLD-1 colon cancer cells. The format is cell-based, Human. The protocol:
as §2
as §1, with “FIGS. 3-5 show the anticancer affects of NATURA in MCF-7 breast cancer cells, DLD-1 colon cancer cells, and LNCaP hormone-dependent prostate cancer cells. The cancer cells grown exponentially were aliquoted into 96-well plates at a density of 5000 cells/200 μl per well in RPMI 1640 medium containing 10% fetal bovine serum (FBS) overnight. The” for “The”

Another series relates to DU145. Kind of series: Growth inhibition by MTT, DU145 prostate cancer cells. The format is cell-based, Human. The following applies: read-out: IC50 DU145. On the procedure:
as §2

Another series concerns Lewis Lung Cancer. Put plainly: Anticancer activity in Lewis lung carcinoma animal model. It counts as in vivo, C57 mice. Particulars: mice, oral, Indirubin 100 × 9, Meisoindigo 106 × 9 mg/kgxd.
In a further series the test system is Walker 256. Kind of series: Anticancer activity against Walker 256 sarcoma. The following applies: Walker 256, rat, oral; Indirubin 100 × 9, Meisoindigo 106 × 9 mg/kgxd.
The next series has as its system human cancer cell lines. Put plainly: Growth inhibition by MTT, all tested human cancer cell lines. It counts as cell-based. Particulars: range over breast, colon, prostate lines, three day exposure, read-out: IC50, growth inhibitory effects on all tested human cancer cell lines. The protocol:
as §2

Series [2] relates to extracellular signal-regulated protein kinase 2 (ERK2). Put plainly: ERK2 activity from treated LNCaP cells. Particulars: different concentrations, 15 min. It counts as cell-based, Human. On the procedure: Assay for cyclin dependent kinase activity: HUVEC and LNCaP cells were cultured in EMB (endothelial cell basal medium) and RPMI 1640 containing 10% FBS, respectively. The cells grown exponentially were exposed to indicated concentrations of meisoindigo or NATURA for 24 hr. The cells were harvested, washed, and total proteins extracted as described previously. One hundred μg of the proteins were immuno-precipitated using antibodies against cdk2, cdk4/6, PKC, ERK2 or cyclin D1 overnight at 4° C. in the presence of a cocktail of protease inhibitors. […] The phosphorylated histone H1 (represent cdk activity) was measured by scintillation counting or by SDS-polyacrylaimde gel electrophoresis. The direct inhibitory effects of Meisoindigo and NATURA were also measured by reaction of immuno-purified specific enzyme from untreated cells directly with the Meisoindigo or NATURA. […]
LNCaP cells at exponential growth phase were exposed to different concentrations of NATURA (panel A & B) for 24 hrs, or to PD98059 (panel C) for 15 min. […] Upper panels are the imagines of x-ray films from SDS-PAGE, and lower panels represent the densities of each band from the films determined by an Imagine Densitometer from the same films (expressed as the percent of control).

Series [3] concerns the target T1, immuno-purified cdk2 from LNCaP cells (Homo sapiens, UniProt P24941).
T1 construct: Two hundred mg of total protein extracts were immuno-precipitated with cdk2 antibody overnight at 4° C
Put plainly: Direct inhibition of immuno-purified cdk2 activity in vitro. The format is biochemical. The following applies: 50 μM, immuno-purified cdk2, positive control. The protocol:
Assay for cyclin dependent kinase activity: HUVEC and LNCaP cells were cultured in EMB (endothelial cell basal medium) and RPMI 1640 containing 10% FBS, respectively. The cells grown exponentially were exposed to indicated concentrations of meisoindigo or NATURA for 24 hr. The cells were harvested, washed, and total proteins extracted as described previously. One hundred μg of the proteins were immuno-precipitated using antibodies against cdk2, cdk4/6, PKC, ERK2 or cyclin D1 overnight at 4° C. in the presence of a cocktail of protease inhibitors. The immuno-precipitates were washed 4 times with protein extraction buffer and once with kinase assay buffer, and reacted with 75 μg/ml histone H1 in the presence of [γ-^32P]-ATP (2.5 μCi/10 μM). The phosphorylated histone H1 (represent cdk activity) was measured by scintillation counting or by SDS-polyacrylaimde gel electrophoresis. The direct inhibitory effects of Meisoindigo and NATURA were also measured by reaction of immuno-purified specific enzyme from untreated cells directly with the Meisoindigo or NATURA.
When immuno-purified cdk2 from LNCaP cells was reacted with histone H1 in the presence of different concentrations of NATURA-β and γ-[^32P]-ATP (2.5 μCi/[…]), the enzyme activity was decreased in a concentration-dependent manner.
Two hundred mg of total protein extracts were immuno-precipitated with cdk2 antibody overnight at 4° C. After 4 washes with PBSTDS, and once with kinase assay buffer, the immuno-purified enzyme was then reacted for 10 min with 10 mg of histone H1 in the presence of different concentrations of NATURA or 50 mM of genistein (as a positive control) and γ-[^32P]-ATP (2.5 mCi/10 mM). The phosphorylated histone H1 (reflecting cdk2 activity) was detected either by SDS-PAGE (upper panel), or radioactive scintillation counting (lower panel, after eliminating free γ-[^32P]-ATP).

The mark [4] stands for this setting: Homo sapiens, PC-3, MTT, 72 h exposure.
The mark [5] stands for this setting: Homo sapiens, DLD-1, 72 h exposure.

The source of these data is patent publication US6933315B2, “Derivatives of isoindigo, indigo and indirubin and methods of treating cancer” (priority 2001, dated 2005).

Read-outs that look alike come from different tables or passages of the source.

Method for Lewis Lung Cancer: (§3) Briefly, C57 mice, body weight between 18 to 22 grams, and rat, body weight between 50 to 55 grams, were randomly divided into several groups, ten of each, respectively. Approximately 2×10^6 of Lewis cancer cells or Walker sarcoma cells were transplanted into mice or rat. […] The animals in the control group were given 0.1 ml saline (drug vehicle, negative control) for the same periods of time as treated group. The animals at end of the treatment were sacrificed and tumors were removed and weighed.
Method for Walker 256: Anticancer activity against Walker 256: Wistar rats with body weights between 50 to 55 grams, were randomly divided into several groups, ten of each, respectively. Approximately 2×10^6 of the Walker sarcoma cells were transplanted into a Wistar rat. Twenty-four hours after the transplantation, equal molar dosage (0.384 mM/kg) of NATURA or other sugar derivatives were given orally for 10 days. The animals in the control group were given 0.1 ml saline (drug vehicle, negative control) for the same periods of time as treated group. Twenty-four hours after the last administration, the animals were sacrificed and tumors were removed and weighed.
as §3
In order to assess the anticancer activities of NATURA and other sugar derivatives, Wistard rats transplanted with W256 were given the same molar of the tested compounds (0.384 mM/kg) for the same period of time (10 days).

With `CC(O)(CS(=O)(=O)c1ccc(F)cc1)C(=O)Nc1ccc(C#N)c(C(F)(F)F)c1` (centres unmarked) [Casodex], the IC50 in the series with LNCaP (Homo sapiens, LNCaP) is 57.4 ± 7.21 µM; in the series on PC-3 (setting [4]), 120 ± 17.3 µM.
In turn, `O=P1(N(CCCl)CCCl)NCCCO1` (centres unmarked) [Cyclophosphamine] yielded a micronuclei in [1] of 41.16 per thousand.
`COc1cccc2c1C(=O)c1c(O)c3c(c(O)c1C2=O)C[C@@](O)(C(C)=O)C[C@@H]3O[C@H]1C[C@H](N)[C@H](O)[C@H](C)O1` [Daunomycin]: the half-maximal inhibitory concentration (IC50) worked out at 0.054 ± 0.011 µM in the series with MCF-7 (Homo sapiens, MCF7, 72 h exposure); 0.061 ± 0.0051 µM with SKBR-3 (Homo sapiens, SK-BR-3, 72 h); 0.035 ± 0.004 µM with LOVO (Homo sapiens, LoVo, 72 h); 0.094 ± 0.013 µM in the series on DLD-1 (setting [5]); 0.24 ± 0.018 µM in the series with PC-3 (Homo sapiens, PC-3, 72 h); 0.107 ± 0.004 µM with DU145 (Homo sapiens, DU-145, 72 h).
As for `O=C1Nc2ccccc2/C1=C1/Nc2ccccc2C1=O` [Indirubin], in the series on Lewis Lung Cancer, the “Inhibition (%)” value stood at 26.3 ± 2.8% and the “Tumor Size X ± SD” value is reported as 2.58 ± 0.21. Moreover, in the series on Walker 256, the “Inhibition (%)” value amounted to 59.4 ± 2.9% and the “Tumor Size X ± SD” value is 3.94 ± 0.71.
In the case of `CS(=O)(=O)Nc1ccc([N+](=O)[O-])cc1OC1CCCCC1` [NS389], the IC50 was over 200 µM in the series on MCF-7 (72 h exposure); over 200 µM with SKBR-3 (MTT, 72 h exposure); over 200 µM with LOVO (MTT, 72 h exposure); over 200 µM with DLD-1 (72 h exposure); 65.5 ± 9.46 µM in the series with LNCaP; over 200 µM with PC-3 (MTT, 72 h exposure). The IC50 is over 200 µM in the series with DU145 (MTT, 72 h exposure) and over 200 µM in the series with human cancer cell lines.
As for `COc1cccc(-c2cc(=O)c3ccccc3o2)c1N` [PD98059], the “effect on ERK2” value in series [2] is recorded as “concentration-dependent inhibitory effects”.
As for `CC(=O)O[C@H]1C(=O)[C@@]2(C)[C@H]([C@H](OC(=O)c3ccccc3)[C@]3(O)C[C@H](OC(=O)[C@H](O)[C@@H](NC(=O)c4ccccc4)c4ccccc4)C(C)=C1C3(C)C)[C@]1(OC(C)=O)CO[C@@H]1C[C@@H]2O` [Paclitaxel], the IC50 with LOVO (Homo sapiens, LoVo, MTT, 72 h exposure) was found to be 0.00364 ± 0.00051 µM; with DLD-1 (setting [5]) it was 0.00315 ± 0.00037 µM.
Turning to `CC(C)(C)NC(=O)[C@H]1CC[C@H]2[C@@H]3CC[C@H]4NC(=O)C=C[C@]4(C)[C@H]3CC[C@]12C` [Proscar], the IC50 came out at 40.6 ± 7.12 µM with LNCaP (Homo sapiens, LNCaP) and 134 ± 12.9 µM with PC-3 (setting [4]).
For `CC1=C(/C=C/C(C)=C/C=C/C(C)=C/C(=O)O)C(C)(C)CCC1` [Retinoid Acid], the IC50 was 21.4 ± 3.78 µM with MCF-7 (72 h exposure); over 50 µM in the series on SKBR-3 (MTT, 72 h exposure); 75.3 ± 12.5 µM with LOVO (MTT, 72 h exposure); 49.7 ± 5.72 µM in the series with DLD-1 (72 h exposure); 16 ± 3.19 µM in the series with LNCaP; over 50 µM with PC-3 (MTT, 72 h exposure). Also, the IC50 was over 50 µM with DU145 (MTT, 72 h exposure) and at least 21.4 µM with human cancer cell lines.
For the compound `O=c1c(-c2ccc(O)cc2)coc2cc(O)cc(O)c12` [genistein], the inhibition at 50 µM in series [3] was about 56%.

For orientation: IC50 means the concentration that inhibits the measured activity by half. The inhibition is the drop in the measured response relative to a control, in per cent. The low end stands for a weak effect, the high end for a strong effect.
